Measured values published in publication PMC6982547 (Leukemia & lymphoma, 2019).
Read-outs that look alike come from different tables or passages of the source.

What was measured:
[1] = Alisertib pharmacokinetics in plasma; format: in vivo, human; settings: Schedule I, vorinostat 200 mg, alisertib 30 mg, day 7, N=1
[2] = tested on: patients with relapsed/refractory lymphoid malignancies; test: Phase 1 safety and tolerability: DLTs, MTD/RP2D, adverse events; format: in vivo, human
[3] = cited from earlier work
[4] = human, in vivo
[5] = previously published data; cited from earlier work
follicular lymphoma = settings: single agent, two phase 2 studies; cited from earlier work
clinical = settings: human, in vivo; for AUC: AUC0-tau; for half-life: t½

COc1cc(Nc2ncc3c(n2)-c2ccc(Cl)cc2C(c2c(F)cccc2OC)=NC3)ccc1C(=O)O [Alisertib]
Cl/F [1]: 1.68 L/h
MTD of the combination, alisertib dose ([2]; BID, with 200 mg vorinostat BID, intermittent dosing Schedule II): 20 mg
recommended phase 2 dose (RP2D) of the combination, alisertib dose ([2]; bid, intermittent schedule): 20 mg
half-life ([3]; previous reports): 14.9 h
apparent clearance ([3]; previously published population estimate): 4.25 L/h

O=C(CCCCCCC(=O)Nc1ccccc1)NO [Vorinostat]
MTD of the combination, vorinostat dose ([2]; BID, with 20 mg alisertib BID, intermittent dosing Schedule II): 200 mg
recommended phase 2 dose (RP2D) of the combination, vorinostat dose ([2]; bid, intermittent schedule): 200 mg
t½ ([4]; 30 mg): 2.38 (0.97) h
AUC0-tau ([4]; 200 mg): 1.10 (0.44) μg/mL•h
clearance [5]: 271 L/h
overall response rate (follicular lymphoma): 47-49%
AUC (clinical; 20 mg): 1030 ng·h/mL
Cmax (clinical; 20 mg): 318 ng/mL
Tmax (clinical; 20 mg): 2.25 h
half-life (clinical; 20 mg): 2.16 h
AUC (clinical; 30 mg): 1850 ng·h/mL
Cmax (clinical; 30 mg): 560 ng/mL
Tmax (clinical; 30 mg): 2.42 h
AUC (clinical; 40 mg): 956 ng·h/mL
Cmax (clinical; 40 mg): 335 ng/mL
Tmax (clinical; 40 mg): 0.98 h
half-life (clinical; 40 mg): 2.31 h
AUC (clinical; 200 mg): 1030 ng·h/mL
Cmax (clinical; 200 mg): 391 ng/mL
half-life (clinical; 200 mg): 2.19 h
half-life (clinical): 2.3 h
